{"source": "patent US6677307B2", "about": "“TGF-α polypeptides, functional fragments and methods of use therefor” (Kaleidos Pharma, Inc., priority 1999, dated 2004)", "key": {"[1]": {"test_system": "lymphoid tissues such as spleen and the large intestine", "experiment": "histological examination of lymphoid tissues after TGF-α57", "format": "in vivo", "conditions": "mice; 10-50 μg/kg ip 3 days or 10-50 μg/kg iv 2 days or 10 μg/kg sc 3-5 days; vs untreated mice", "excerpt": "In still another embodiment, a TGF-α polypeptide, a related polypeptide, mimetic, or functional fragment thereof having TGF-α activity are useful as vaccine adjuvants to increase mucosal humoral immunity. […] Such T cell progenitors positioned in the gastrointestinal tract represent a reservoir for CD4 helper cells needed against mucosal directed vaccine production mediated by priming with exogenous antigen. The T cell progenitor cells appear to be double null and thus naive. Accordingly, the T cell progenitor cell response to TGF-α and TGF-α mimetics provides the utility for such compounds to provide a strong mucosal immunity response and usefulness as a mucosal vaccine and as a universal stem cell adjuvant."}, "[2]": {"test_system": "immune cells (T cell lineage), mast cells", "experiment": "immune cells, mast cells and cytokines in vivo after CP", "set-up": "species or system mice", "conditions": "mice after immune-suppression by CP; lymphoid tissue, Peyers Patches, spleen", "excerpt": "The stimulated immune cells were phenotypically identified as CD4 positive T cells and double null CD4 negative CD8 negative T cell progenitors. […] The in vivo activity of TGFα (and the functional peptides of formula I, formula II, formula III, and formula IV) to stimulate early T cell progenitors in the release of TH-1 and TH-2 cytokines and this regulation of immune phenomena. The stimulation of select immune cells, in particular cells of a T cell lineage, was seen consistently in the mice who received CP and TGF-α57 in lymphoid tissue, Peyers Patches and the spleen. Further, recruitment of help via CD4 cells in some cases boosts immune system function in general.\nThis is a parallel activity that is in addition to the gastrointestinal anti-inflammatory activity and prevention of mucositis of TGFα (and the functional peptides of formula I, formula II, formula III, and […]) described herein."}, "[3]": {"test_system": "kidney tissue (primarily glomeruli)", "experiment": "Cis-platinum kidney damage, H&E kidney histology", "format": "in vivo", "conditions": "mice; CP 10 mg/kg ip; 10 μg/kg 6 hours prior to CP and 24 and 48 hours after CP", "experimental": "In addition, administration of a TGF-α polypeptide, fragments, and mimetic to regenerate damaged tissue, for example, in kidney, an organ sensitive to such damage, is also disclosed herein. In an in vivo experiment, mice were administered 10 mg/kg of Cis-platinum as a single ip injection and treated mice administered 10 μg/kg a human TGF-α57 (R&D Systems, Minneapolis, Minn.). TGF-α57 was administered just before CP and in two additional doses after, by ip administration for a general systemic effect. Several organs or tissues were collected from the animals sacrificed 4 days after CP dose (or saline for no TGFα57) and tissues were examined histologically.\nThe cuboidal epithelium of the proximal convuluted tubule was also damaged."}}}
{"substance": "TGF-α57: 57 amino acid polypeptide of formula VI: Ser-Leu-Ser-Leu-Pro-Ala-Met-Human TGFα", "values": [{"measurement": "T cell progenitor cells (histology)", "setting": "[1]", "result": "increase in T cell progenitor cells"}, {"measurement": "proliferation of select immune cells (T cell lineage)", "setting": "[2]", "result": "stimulation of proliferation of select immune cells"}, {"measurement": "glomeruli damage (H&E kidney histology)", "setting": "[3]", "result": "essentially protected the glomeruli from damage"}]}
